# From patent US11192863B2, “Antiviral compounds and methods” (Biotron Limited, priority 2003, dated 2021)
# Read-outs that look alike come from different tables or passages of the source.
# Columns and labels:
# [1] = tested on: MHV (strain MHV-A59); conditions: L929 cells
# [2] = target: 229E-CoV E-protein (Human coronavirus 229E, UniProt P19741); experiment: Bacterial bio-assay for 229E-CoV E-protein; conditions: halo of growth score; E. coli expressing E protein at 37° C.
# [3] = target: SARS-CoV E protein (Severe acute respiratory syndrome coronavirus, UniProt P59637); assay type: cell-based
# [4] = target: Vpu protein (Human immunodeficiency virus type 1 group M subtype B, UniProt P05919); conditions: halo of growth score between zero and six; XL1-blue E. coli with pPL-Vpu, no adenine, 37° C.
Compound,Percent reduction in Plaque number/# experiments ([1]; 1 uM),Percent reduction in Plaque number/# experiments ([1]; 10 uM),Percent reduction in Plaque number/# experiments ([1]; 20 uM),229E E protein Inhibition (score) [2] [score],SARS E protein Inhibition (score/# of times tested) [3],Vpu Inhibition (score/# of times tested) [4],Toxic (noted in place of plaque reduction) ([1]; 20 uM)
NC(N)=NC(=O)c1cccc2ccccc12 [1-napthoylguanidine],2/3%,62/3%,71/3%,1.9,1.32/3 score,0.3/2 score,–
"Cc1cc(C)c(C)c(/C=C/C(=O)NC(=N)N)c1C [2,3,5,6,-tetramethylcinnamoylguanidine]",0/1%,68/2%,–,0.3,1.00/1 score,1.6/2 score,–
"N=C(N)NC(=O)/C=C/c1cccc(F)c1F [2,3-difluorocinnamoylguanidine]",64/2%,92/3%,–,3.3,4.50/1 score,1.56/2 score,Toxic
"Cc1cccc(/C=C/C(=O)NC(=N)N)c1C [2,3-dimethylcinnamoylguanidine]",34/1%,79/2%,95/1%,0.5,–,3.1/2 score,–
"Cc1cc(C)c(/C=C/C(=O)NC(=N)N)c(C)c1 [2,4,6-trimethylcinnamoylguanidine]",27/2%,61/3%,91/2%,0.9,–,1.4/2 score,–
"Cc1ccc(C)c(/C=C/C(=O)NC(=N)N)c1 [2,5-dimethylcinnamoylguanidine]",39/3%,91/3%,95/3%,1.6,3.63/1 score,2.69/2 score,–
N=C(N)NC(=O)/C=C/c1ccccc1C(F)(F)F [2-(trifluoromethyl)cinnamoylguanidine],13/1%,15/1%,19/1%,1.5,1.38/1 score,2.4/2 score,–
N=C(N)NC(=O)/C=C/c1ccccc1C1CCCCC1 [2-cyclohexylcinnamoylguanidine],16/1%,74/2%,100/1%,0.8,1.83/1 score,0.8/2 score,–
CCOc1ccccc1/C=C/C(=O)NC(=N)N [2-ethoxycinnamoylguanidine],48/2%,85/3%,93/2%,0.6,2.57/1 score,2.25/2 score,–
CCc1ccccc1/C=C/C(=O)NC(=N)N [2-ethylcinnamoylguanidine],34/1%,81/2%,96/1%,0.8,1.50/1 score,2.75/2 score,–
N=C(N)NC(=O)/C=C/c1ccccc1F [2-fluorocinnamoylguanidine],–,73/1%,76/1%,0.4,0.63/1 score,2.1/2 score,–
Cc1ccccc1/C=C/C(=O)NC(=N)N [2-methylcinnamoylguanidine],20/1%,82/1%,91/1%,0.5,1.00/1 score,3.1/2 score,–
NC(N)=NC(=O)c1ccc2ccccc2c1 [2-napthoylguanidine],34/2%,36/2%,67/2%,0.3,1.38/2 score,2.7/11 score,–
